Values quoted from earlier work in article PMC12472391, “Borylated Five-Membered Ring Iminosugars: Synthesis, Spectroscopic Analysis, and Biological Evaluation for Glycosidase Inhibition and Anticancer Properties for Application in Boron Neutron Capture Therapy (BNCT)—Part 1” (Pharmaceuticals, 2025).
Where a name gives a salt, the structure may show the parent alone. Read-outs that look alike come from different tables or passages of the source.

What was measured:
Conditions in all cases: cited from earlier work
[1] = target: β-D-galactosidase (E. coli) (Escherichia coli, UniProt P00722)
β-D-galactosidase (E. coli), sequence (P00722 2-1024): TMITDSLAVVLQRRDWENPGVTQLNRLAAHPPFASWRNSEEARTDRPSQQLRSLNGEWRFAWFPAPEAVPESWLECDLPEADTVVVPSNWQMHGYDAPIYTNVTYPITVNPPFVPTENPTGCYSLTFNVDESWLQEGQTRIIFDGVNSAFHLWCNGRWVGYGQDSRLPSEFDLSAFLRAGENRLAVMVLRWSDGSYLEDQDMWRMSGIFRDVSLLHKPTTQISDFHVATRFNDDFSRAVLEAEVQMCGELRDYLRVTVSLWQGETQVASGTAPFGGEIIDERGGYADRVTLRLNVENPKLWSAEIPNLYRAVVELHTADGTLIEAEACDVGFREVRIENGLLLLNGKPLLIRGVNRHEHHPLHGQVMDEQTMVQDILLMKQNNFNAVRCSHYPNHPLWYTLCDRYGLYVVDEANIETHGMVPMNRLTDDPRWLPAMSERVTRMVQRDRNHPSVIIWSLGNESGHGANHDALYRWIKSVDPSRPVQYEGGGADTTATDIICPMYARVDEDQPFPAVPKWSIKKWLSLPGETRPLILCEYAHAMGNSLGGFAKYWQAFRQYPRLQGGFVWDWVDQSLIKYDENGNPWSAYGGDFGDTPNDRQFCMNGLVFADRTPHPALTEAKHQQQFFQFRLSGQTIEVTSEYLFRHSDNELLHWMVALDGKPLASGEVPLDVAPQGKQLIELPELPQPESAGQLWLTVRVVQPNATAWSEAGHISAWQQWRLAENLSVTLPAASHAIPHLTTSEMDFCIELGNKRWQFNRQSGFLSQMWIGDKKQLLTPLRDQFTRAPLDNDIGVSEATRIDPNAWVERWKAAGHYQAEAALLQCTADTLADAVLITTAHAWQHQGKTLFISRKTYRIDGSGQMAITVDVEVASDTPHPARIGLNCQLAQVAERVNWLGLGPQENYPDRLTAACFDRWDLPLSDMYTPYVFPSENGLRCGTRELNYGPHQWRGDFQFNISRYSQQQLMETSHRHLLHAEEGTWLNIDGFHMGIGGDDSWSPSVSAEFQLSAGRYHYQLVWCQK

aldose reductase = system: aldose reductase; set-up: method as in PMID 31557624
α-D-glucosidase = system: α-D-glucosidase; set-up: method as in PMID 31557624
[2] = target: T1, α-D-mannosidase (Jack bean) (Canavalia ensiformis, UniProt C0HJB3)
T1 construct: purchased Sigma
T1 sequence (C0HJB3 1-981): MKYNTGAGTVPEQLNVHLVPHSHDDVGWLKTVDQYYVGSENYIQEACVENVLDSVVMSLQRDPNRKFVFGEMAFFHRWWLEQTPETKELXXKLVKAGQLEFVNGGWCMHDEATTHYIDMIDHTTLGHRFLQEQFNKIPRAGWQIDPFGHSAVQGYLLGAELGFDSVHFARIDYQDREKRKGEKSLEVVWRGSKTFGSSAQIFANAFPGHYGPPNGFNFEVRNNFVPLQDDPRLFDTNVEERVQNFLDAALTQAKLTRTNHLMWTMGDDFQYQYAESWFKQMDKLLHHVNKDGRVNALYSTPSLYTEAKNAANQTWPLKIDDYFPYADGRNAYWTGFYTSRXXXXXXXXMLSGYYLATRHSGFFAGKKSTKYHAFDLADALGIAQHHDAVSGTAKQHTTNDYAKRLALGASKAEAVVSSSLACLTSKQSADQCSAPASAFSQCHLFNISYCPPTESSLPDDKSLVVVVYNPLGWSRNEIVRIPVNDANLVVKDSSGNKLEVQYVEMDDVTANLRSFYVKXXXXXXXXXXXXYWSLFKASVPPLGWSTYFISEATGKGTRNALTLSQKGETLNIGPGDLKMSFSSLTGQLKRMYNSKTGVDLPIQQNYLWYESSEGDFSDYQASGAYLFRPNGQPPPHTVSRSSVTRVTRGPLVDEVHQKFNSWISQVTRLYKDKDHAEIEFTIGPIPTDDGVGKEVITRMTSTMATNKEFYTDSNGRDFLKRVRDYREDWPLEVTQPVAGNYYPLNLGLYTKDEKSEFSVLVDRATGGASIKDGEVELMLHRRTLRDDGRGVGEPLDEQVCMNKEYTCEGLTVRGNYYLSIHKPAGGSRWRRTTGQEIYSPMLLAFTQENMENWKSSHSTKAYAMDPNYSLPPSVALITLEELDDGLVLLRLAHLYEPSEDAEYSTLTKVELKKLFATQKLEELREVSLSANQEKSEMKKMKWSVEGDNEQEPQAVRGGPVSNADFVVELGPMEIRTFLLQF

[3] = system: α-D-galactosidase (coffee bean)
[4] = system: α-D-mannosidase (Golgi II); set-up: method as in PMID 2706004
[5] = system: β-D-N-acetylhexosaminidase; set-up: method as in PMID 2706004
β-D-mannosidase = system: β-D-mannosidase; set-up: method as in PMID 2706004
[6] = system: α-D-mannosidase (lysosomal acidic); set-up: method as in PMID 2706004
α-L-fucosidase = system: α-L-fucosidase; set-up: method as in PMID 2706004
[7] = system: α-D-mannosidase (Golgi II); set-up: method as in PMID 8457203
[8] = system: amyloglucosidase (A. niger); set-up: method as in PMID 31944194
α-D-glucosidase (rice) = α-D-glucosidase (rice) (Oryza sativa subsp. japonica, UniProt Q653V7); set-up: method as in PMID 31944194
α-D-glucosidase (rice), sequence (Q653V7 34-885): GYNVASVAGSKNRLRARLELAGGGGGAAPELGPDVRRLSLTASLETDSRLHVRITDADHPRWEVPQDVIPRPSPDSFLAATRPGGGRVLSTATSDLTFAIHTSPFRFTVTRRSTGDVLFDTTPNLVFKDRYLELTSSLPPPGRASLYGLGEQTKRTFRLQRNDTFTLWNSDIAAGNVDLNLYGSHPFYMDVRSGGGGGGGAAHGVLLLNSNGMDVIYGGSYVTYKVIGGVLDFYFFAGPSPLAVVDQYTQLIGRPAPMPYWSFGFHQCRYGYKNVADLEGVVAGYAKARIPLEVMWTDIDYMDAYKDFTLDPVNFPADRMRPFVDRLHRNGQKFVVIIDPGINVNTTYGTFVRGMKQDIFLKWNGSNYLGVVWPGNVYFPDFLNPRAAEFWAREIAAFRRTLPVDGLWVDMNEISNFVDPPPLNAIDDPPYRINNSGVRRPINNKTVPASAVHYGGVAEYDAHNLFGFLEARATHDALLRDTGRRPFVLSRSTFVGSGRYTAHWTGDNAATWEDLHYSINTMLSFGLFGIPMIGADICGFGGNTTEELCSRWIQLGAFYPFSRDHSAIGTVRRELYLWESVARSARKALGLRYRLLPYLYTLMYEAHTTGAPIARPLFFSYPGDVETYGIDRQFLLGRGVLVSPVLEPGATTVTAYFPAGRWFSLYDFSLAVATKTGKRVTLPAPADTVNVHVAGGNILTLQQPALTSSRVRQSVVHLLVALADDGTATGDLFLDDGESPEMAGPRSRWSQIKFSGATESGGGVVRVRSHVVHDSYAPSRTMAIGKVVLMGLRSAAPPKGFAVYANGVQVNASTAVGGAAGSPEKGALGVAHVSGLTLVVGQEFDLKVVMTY

[9] = system: α-D-glucosidase (rat intestinal maltase); set-up: method as in PMID 31944194
[10] = system: trehalase (porcine kidney); set-up: method as in PMID 31944194
[11] = target: T2, β-D-glucuronidase (E. coli) (Escherichia coli, UniProt P05804); set-up: method as in PMID 31944194
T2 construct: purchased Sigma-Aldrich Co
T2 sequence (P05804 whole entry): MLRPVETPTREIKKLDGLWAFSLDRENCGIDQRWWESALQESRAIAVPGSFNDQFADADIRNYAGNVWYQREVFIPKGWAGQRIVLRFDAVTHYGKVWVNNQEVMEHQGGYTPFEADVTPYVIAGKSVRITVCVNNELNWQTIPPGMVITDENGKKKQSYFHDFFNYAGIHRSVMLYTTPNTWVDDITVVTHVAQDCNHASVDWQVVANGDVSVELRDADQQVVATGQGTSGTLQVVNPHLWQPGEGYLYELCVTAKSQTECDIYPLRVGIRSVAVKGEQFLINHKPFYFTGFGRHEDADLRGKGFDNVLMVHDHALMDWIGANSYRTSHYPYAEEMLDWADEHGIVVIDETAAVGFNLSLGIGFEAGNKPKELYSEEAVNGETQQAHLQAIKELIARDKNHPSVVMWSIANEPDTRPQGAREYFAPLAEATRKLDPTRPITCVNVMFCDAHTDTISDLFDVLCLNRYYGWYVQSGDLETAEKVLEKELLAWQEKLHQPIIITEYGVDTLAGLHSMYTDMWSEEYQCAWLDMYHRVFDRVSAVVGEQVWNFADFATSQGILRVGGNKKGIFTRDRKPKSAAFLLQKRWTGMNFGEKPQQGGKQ

[12] = system: α-D-mannosidase (neutral); set-up: method as in PMID 8457203
[13] = target: fruit fly lysosomal acidic α-D-mannosidase; set-up: method as in PMID 29323461
[14] = system: α-L-fucosidase (bovine kidney); set-up: method as in PMID 31944194
[15] = target: β-D-glucosidase (human lysosome) (Homo sapiens, UniProt P04062); set-up: method as in PMID 31944194
β-D-glucosidase (human lysosome), sequence (P04062 40-536): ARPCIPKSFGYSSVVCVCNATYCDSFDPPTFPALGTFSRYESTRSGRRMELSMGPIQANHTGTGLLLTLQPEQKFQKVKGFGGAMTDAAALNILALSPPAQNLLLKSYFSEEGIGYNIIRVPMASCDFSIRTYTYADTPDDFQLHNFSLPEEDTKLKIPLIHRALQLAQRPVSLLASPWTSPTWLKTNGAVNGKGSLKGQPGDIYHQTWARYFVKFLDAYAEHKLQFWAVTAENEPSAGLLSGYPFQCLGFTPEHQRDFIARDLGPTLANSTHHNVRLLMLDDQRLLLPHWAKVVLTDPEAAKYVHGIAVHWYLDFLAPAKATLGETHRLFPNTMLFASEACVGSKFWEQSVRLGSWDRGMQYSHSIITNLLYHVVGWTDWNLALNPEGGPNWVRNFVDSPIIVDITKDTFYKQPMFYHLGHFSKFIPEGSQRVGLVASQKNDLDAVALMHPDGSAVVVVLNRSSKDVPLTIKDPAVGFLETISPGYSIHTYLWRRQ

β-D-mannosidase (snail) = system: β-D-mannosidase (snail); set-up: method as in PMID 31944194
[16] = target: fruit fly Golgi II α-D-mannosidase; set-up: method as in PMID 29323461
[17] = target: T1, α-D-mannosidase (Jack bean); set-up: method as in PMID 31944194
[18] = system: α-D-galactosidase (coffee bean); set-up: method as in PMID 31944194
[19] = target: T3, β-D-galactosidase (bovine liver) (Bos taurus, UniProt Q58D55); set-up: method as in PMID 31944194
T3 sequence (Q58D55 28-653): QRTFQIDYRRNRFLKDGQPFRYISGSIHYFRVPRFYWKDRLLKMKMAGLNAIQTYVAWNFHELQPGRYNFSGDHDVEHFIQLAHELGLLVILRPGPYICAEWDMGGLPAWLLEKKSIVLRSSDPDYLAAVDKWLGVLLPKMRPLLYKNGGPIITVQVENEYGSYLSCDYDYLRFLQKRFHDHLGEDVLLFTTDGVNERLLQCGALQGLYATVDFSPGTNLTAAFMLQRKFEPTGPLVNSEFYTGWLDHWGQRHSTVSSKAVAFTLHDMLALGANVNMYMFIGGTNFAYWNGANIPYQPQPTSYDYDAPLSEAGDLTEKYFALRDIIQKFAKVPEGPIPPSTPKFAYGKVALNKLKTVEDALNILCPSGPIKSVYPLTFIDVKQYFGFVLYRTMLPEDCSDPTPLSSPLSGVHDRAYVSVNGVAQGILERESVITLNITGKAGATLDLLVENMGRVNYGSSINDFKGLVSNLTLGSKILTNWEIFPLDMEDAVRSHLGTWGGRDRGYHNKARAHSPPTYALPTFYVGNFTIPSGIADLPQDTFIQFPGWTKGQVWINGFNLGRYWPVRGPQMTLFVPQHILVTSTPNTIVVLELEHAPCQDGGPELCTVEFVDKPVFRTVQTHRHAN

[20] = system: β-D-glucosidase (bovine liver); set-up: method as in PMID 31944194
[21] = system: α-L-rhamnosidase (P. decumbens); set-up: method as in PMID 31944194
β-D-glucosidase (almond) = system: β-D-glucosidase (almond); set-up: method as in PMID 31944194
α-D-glucosidase (yeast) = target: T4, α-D-glucosidase (yeast) (Saccharomyces cerevisiae, UniProt P53341); set-up: method as in PMID 31944194
T4 construct: purchased Sigma
T4 sequence (P53341 whole entry): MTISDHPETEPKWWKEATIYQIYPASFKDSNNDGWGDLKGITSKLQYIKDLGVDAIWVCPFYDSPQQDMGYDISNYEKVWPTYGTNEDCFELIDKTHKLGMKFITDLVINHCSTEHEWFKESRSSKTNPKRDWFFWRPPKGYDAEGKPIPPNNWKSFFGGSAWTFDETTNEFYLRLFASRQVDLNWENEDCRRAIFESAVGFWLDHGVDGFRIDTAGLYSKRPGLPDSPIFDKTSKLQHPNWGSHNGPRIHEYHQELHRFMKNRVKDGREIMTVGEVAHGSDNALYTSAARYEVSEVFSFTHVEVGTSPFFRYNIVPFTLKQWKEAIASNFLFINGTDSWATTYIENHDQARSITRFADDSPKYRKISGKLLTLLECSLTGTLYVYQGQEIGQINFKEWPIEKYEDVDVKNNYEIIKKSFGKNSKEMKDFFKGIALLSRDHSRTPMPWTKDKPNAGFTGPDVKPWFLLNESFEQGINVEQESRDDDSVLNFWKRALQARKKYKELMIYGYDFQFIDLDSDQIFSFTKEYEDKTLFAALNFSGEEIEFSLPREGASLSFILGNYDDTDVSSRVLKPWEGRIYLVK

[22] = system: α-D-mannosidase (lysosomal acidic); set-up: method as in PMID 8457203

Structure (SMILES): Cl.OC[C@@H](O)[C@H]1[C@H](O)[C@H](O)CN1Cc1ccccc1B(O)O [N-(2-Methylphenylboronic acid)-1,4-dideoxy-1,4-imino-D-talitol.HCl]
- β-D-galactosidase (E. coli) inhibition [1]: β-D-galactosidase (E. coli) (44–55%)

Structure (SMILES): OC[C@@H](O)[C@H]1[C@H](O)[C@@H](O)CN1Cc1ccccc1 [N-Benzyl-1,4-dideoxy-1,4-imino-D-galactitol]
- aldose reductase inhibition (aldose reductase): 32.6%
- α-D-glucosidase inhibition (α-D-glucosidase): 93.2%
- IC50 (α-D-glucosidase; read-out: IC50 towards α-D-glucosidase): 40.6 µM

Structure (SMILES): OC[C@@H](O)[C@H]1[C@H](O)[C@H](O)CN1Cc1ccccc1 [N-Benzyl-1,4-dideoxy-1,4-imino-D-talitol.HCl]
- α-D-mannosidase (Jack bean) inhibition [2]: little inhibition
- β-D-galactosidase (E. coli) inhibition [1]: little inhibition
- α-D-galactosidase (coffee bean) inhibition [3]: little inhibition

Structure (SMILES): OC[C@@H](O)[C@@H]1[C@@H](O)[C@@H](O)CN1Cc1ccccc1 [N-Benzyl-1,4-dideoxy-1,4-imino-D-allitol]
- α-D-mannosidase Golgi II inhibition [4]: 11%
- β-D-N-acetylhexosaminidase inhibition [5]: 35%
- β-D-mannosidase inhibition (β-D-mannosidase): 0%
- α-D-mannosidase lysosomal acidic inhibition [6]: 7%
- α-L-fucosidase inhibition (α-L-fucosidase): α-L-fucosidase (76%)

Structure (SMILES): OC[C@@H](O)[C@@H]1[C@H](O)[C@H](O)CN1Cc1ccccc1 [N-Benzyl-1,4-dideoxy-1,4-imino-D-mannitol.HCl]
- α-D-mannosidase Golgi II inhibition [7]: 72%
- amyloglucosidase (A. niger) inhibition [8]: 11.4%
- α-D-glucosidase (rice) inhibition (α-D-glucosidase (rice)): 34.2%
- α-D-glucosidase (rat intestinal maltase) inhibition [9]: 16.6%
- trehalase (porcine kidney) inhibition [10]: 0%
- β-D-glucuronidase (E. coli) inhibition [11]: 9.8%
- α-D-mannosidase neutral inhibition [12]: 44%
- IC50 [13]: 1500 µM
- α-L-fucosidase (bovine kidney) inhibition [14]: 8.4%
- β-D-glucosidase (human lysosome) inhibition [15]: 4.7%
- β-D-mannosidase (snail) inhibition (β-D-mannosidase (snail)): 4.4%
- IC50 [16]: 690 µM
- α-D-mannosidase (Jack bean) inhibition [17]: 27%
- α-D-galactosidase (coffee bean) inhibition [18]: 8.8%
- β-D-galactosidase (bovine liver) inhibition [19]: 7.9%
- β-D-glucosidase (bovine liver) inhibition [20]: 9.5%
- α-L-rhamnosidase (P. decumbens) inhibition [21]: 11.5%
- β-D-glucosidase (almond) inhibition (β-D-glucosidase (almond)): 6.1%
- α-D-glucosidase (yeast) inhibition (α-D-glucosidase (yeast)): 6.5%
- α-D-mannosidase lysosomal acidic inhibition [22]: 34%
